Drawing on ChEMBL document CHEMBL3217496, “Inhibitors of Stat5 protein signalling” (Medchemcomm, 2012), this text covers IC50 for five compounds.

A short description of one assay: cells. Particulars: Homo sapiens, EOL1.
For the next assay, the system named is BaF3. Put plainly: Cytotoxicity against mouse BAF3 cells expressing JAK2 V617F mutant after 48 hrs by CellTiterGlo assay. The format is functional, cell-based. Particulars: BaF3, 48 h. On the technique in general: ATP-based viability assays read luminescence as a measure of living cells.
In assay [1] the target is T1, Signal transducer and activator of transcription 5A (Homo sapiens, UniProt P42229).
T1 sequence (P42229 whole entry): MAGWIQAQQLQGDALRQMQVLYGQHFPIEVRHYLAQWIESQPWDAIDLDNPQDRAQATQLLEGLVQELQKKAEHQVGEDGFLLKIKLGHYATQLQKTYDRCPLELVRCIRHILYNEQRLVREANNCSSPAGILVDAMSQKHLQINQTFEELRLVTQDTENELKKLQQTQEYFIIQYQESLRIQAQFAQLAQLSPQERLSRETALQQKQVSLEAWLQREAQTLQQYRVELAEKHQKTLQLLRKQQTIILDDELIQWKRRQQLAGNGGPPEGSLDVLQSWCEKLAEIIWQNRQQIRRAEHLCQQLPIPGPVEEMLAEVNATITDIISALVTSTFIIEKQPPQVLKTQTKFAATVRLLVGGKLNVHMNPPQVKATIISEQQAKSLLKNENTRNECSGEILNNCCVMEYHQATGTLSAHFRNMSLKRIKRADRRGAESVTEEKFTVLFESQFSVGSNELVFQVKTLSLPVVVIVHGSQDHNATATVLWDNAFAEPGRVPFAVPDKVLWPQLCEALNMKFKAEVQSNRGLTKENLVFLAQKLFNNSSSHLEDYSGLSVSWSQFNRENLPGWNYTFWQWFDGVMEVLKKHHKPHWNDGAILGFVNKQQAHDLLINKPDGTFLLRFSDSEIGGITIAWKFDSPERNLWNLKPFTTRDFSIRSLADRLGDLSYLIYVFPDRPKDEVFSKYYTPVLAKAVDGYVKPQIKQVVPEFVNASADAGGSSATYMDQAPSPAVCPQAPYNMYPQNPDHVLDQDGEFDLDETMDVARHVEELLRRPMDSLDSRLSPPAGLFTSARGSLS
In words: Inhibition of STAT5 DNA binding activity in human K562 cells after 24 hrs by electrophoretic mobility shift assay. The format is cell-based.

Assay [2] deals with T1, Signal transducer and activator of transcription 5A. In words: Inhibition of STAT5 (unknown origin).
The target in assay [3] is Signal transducer and activator of transcription 3 (Homo sapiens, UniProt P40763). In words: Inhibition of STAT3 (unknown origin).
Sequence of Signal transducer and activator of transcription 3 (P40763 whole entry): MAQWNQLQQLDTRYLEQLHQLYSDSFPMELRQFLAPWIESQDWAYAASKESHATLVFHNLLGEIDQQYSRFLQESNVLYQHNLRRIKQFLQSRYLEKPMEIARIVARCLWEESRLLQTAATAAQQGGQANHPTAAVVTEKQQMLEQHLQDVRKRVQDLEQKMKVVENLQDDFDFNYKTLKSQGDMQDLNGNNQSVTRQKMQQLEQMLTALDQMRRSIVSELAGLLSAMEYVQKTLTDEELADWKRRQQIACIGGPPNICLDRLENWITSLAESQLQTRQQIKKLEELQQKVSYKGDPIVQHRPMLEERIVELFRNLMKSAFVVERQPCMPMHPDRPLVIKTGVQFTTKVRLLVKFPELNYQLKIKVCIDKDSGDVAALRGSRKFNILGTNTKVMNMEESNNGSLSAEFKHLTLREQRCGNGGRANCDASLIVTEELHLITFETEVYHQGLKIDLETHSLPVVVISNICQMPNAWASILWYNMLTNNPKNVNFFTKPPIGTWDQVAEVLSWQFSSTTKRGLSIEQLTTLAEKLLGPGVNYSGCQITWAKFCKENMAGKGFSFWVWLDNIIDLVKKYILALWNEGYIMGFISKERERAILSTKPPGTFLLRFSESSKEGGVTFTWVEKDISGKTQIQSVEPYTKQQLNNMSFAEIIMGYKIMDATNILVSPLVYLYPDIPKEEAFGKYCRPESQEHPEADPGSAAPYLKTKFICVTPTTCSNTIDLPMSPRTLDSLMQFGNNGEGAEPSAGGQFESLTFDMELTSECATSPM
Assay [4] deals with T2, Signal transducer and activator of transcription 1-alpha/beta (Homo sapiens, UniProt P42224).
T2 sequence (P42224 whole entry): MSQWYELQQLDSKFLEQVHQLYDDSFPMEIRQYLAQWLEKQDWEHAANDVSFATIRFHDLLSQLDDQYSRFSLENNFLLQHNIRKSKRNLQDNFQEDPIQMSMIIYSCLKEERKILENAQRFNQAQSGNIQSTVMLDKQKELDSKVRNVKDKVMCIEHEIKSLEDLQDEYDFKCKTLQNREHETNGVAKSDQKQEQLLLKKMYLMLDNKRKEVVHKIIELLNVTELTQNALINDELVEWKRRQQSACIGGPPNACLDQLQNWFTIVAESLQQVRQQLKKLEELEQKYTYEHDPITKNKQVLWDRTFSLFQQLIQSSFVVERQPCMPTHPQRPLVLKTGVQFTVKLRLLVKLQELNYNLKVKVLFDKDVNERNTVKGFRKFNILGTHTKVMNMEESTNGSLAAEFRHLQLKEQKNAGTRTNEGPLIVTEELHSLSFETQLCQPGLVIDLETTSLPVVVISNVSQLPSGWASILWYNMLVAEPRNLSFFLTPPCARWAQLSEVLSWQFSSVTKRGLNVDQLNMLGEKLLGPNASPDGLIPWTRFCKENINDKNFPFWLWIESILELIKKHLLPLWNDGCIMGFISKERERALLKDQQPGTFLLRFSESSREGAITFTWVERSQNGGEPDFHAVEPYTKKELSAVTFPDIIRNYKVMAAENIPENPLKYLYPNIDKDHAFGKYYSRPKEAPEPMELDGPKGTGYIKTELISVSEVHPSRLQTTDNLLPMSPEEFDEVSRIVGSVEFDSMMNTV
Put plainly: Inhibition of STAT1 (unknown origin).

In assay [5] the target is Tyrosine-protein kinase JAK2 (Mus musculus, UniProt Q62120, V617F). In words: Inhibition of JAK2 V617F mutant in mouse BAF3 cells. The format is cell-based.
Sequence of Tyrosine-protein kinase JAK2 (Q62120 as listed by the source V617F): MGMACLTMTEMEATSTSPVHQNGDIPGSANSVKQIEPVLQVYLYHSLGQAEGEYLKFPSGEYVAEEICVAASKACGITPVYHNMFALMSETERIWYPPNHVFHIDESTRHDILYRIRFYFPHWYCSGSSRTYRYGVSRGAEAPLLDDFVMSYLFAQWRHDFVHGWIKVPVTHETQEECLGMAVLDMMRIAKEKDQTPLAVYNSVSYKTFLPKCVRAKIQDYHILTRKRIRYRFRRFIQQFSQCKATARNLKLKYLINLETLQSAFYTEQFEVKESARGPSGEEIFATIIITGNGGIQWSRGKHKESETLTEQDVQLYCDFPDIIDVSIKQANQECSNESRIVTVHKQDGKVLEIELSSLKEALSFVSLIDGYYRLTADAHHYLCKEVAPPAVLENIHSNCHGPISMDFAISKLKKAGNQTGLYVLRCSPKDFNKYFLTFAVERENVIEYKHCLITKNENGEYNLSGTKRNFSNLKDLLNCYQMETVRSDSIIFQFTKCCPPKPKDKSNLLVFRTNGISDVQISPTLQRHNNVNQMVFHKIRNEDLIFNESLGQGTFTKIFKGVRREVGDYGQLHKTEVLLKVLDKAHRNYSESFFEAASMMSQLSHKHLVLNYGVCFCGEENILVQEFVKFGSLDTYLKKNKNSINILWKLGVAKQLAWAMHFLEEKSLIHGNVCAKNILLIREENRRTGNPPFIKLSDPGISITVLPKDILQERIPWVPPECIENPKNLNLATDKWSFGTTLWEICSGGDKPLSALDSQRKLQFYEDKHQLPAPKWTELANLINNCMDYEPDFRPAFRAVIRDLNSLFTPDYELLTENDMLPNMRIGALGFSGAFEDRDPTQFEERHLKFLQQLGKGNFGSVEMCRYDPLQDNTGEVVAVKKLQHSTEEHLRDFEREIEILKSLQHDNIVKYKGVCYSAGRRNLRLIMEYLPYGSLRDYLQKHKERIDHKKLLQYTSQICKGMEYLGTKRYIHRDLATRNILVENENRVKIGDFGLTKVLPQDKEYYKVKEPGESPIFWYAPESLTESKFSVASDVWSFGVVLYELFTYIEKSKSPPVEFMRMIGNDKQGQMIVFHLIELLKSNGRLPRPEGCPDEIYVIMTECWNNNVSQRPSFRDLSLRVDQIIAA

SMILES strings stand for the structures.

Description for cells: Antiproliferative activity against human EOL-1 cells by CellTiterGlo assay

As to `CNC(=O)c1cc(Oc2ccc(NC(=O)Nc3ccc(Cl)c(C(F)(F)F)c3)cc2)ccn1` [SORAFENIB], the IC50 (commonly the concentration at which inhibition is half-maximal) in “cells” came to 2.3 nM.
`N#CC[C@H](C1CCCC1)n1cc(-c2ncnc3[nH]ccc23)cn1` [RUXOLITINIB]: in the assay on BaF3, the IC50 was 126 nM.
As for `Cc1cc(Nc2ncc3cc(-c4c(Cl)cccc4Cl)c(=O)n(C)c3n2)ccc1F`, in assay [1], the 50% inhibitory concentration (IC50) was determined as 5 nM.
For the compound `O=C(N/N=C/c1coc2ccccc2c1=O)c1cccnc1`, the IC50 worked out at 47000 nM in assay [2], 180000 nM in assay [3] and 130000 nM in assay [4].
In assay [5], `N#CCNC(=O)c1ccc(-c2ccnc(Nc3ccc(N4CCOCC4)cc3)n2)cc1` [MOMELOTINIB] displayed an IC50 of 1500 nM.
